Earlier results in patent EP4570798A1, “AROMATIC HETEROCYCLIC CYCLOHEXYL AMINOALKYL PIPERIDINE DERIVATIVE, PREPARATION METHOD AND USE THEREOF” (Jiangsu NHWA Pharmaceutical Co., Ltd, priority 2022, dated 2024).

What was measured:
5HT1A/1B = 5HT1A/1B agonist, literature value; cited from earlier work
D2 = D2 (Homo sapiens, UniProt P14416); details: literature value; cited from earlier work
D3 = D3 (Homo sapiens, UniProt P35462); details: literature value; cited from earlier work
5-HT1A = biological target: T1, 5-HT1A (Homo sapiens, UniProt P08908); details: literature value; cited from earlier work
T1 sequence (P08908 1-422): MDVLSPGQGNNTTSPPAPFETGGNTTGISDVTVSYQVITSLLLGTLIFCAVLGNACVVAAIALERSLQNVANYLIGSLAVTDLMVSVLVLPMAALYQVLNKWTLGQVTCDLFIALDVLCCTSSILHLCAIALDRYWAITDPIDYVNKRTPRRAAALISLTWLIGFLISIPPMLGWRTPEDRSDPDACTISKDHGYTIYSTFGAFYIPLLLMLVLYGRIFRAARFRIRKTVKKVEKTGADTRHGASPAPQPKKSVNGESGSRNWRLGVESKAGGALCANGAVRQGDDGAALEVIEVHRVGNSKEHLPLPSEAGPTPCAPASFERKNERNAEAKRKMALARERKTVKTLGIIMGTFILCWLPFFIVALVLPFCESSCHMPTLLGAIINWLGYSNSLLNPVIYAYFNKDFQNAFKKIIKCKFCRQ

D3, sequence (P35462 whole entry): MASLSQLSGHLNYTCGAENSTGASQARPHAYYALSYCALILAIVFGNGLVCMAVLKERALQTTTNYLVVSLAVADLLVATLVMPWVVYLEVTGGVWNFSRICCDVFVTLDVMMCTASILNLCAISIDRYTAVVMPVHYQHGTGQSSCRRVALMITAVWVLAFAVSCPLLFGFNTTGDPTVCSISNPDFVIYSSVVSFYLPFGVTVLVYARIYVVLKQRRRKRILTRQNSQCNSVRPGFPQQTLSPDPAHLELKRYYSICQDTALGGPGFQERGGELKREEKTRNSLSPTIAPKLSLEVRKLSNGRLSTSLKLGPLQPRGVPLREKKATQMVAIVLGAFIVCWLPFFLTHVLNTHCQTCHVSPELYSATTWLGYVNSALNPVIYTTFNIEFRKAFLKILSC
D2, sequence (P14416 whole entry): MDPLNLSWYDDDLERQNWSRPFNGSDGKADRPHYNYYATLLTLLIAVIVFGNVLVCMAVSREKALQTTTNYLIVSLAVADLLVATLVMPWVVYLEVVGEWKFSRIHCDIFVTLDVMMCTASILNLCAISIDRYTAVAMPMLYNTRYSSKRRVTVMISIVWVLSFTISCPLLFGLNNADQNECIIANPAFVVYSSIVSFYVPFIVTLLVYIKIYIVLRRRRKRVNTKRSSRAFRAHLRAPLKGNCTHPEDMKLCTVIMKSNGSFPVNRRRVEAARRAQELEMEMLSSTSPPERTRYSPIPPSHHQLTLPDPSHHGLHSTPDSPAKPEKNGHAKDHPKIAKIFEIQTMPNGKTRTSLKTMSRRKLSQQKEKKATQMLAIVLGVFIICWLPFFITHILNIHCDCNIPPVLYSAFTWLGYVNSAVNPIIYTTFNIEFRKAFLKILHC

SMILES	EC50 (5HT1A/1B) [nM]	EC50 (D2) [nM]	IC50 (D3) [nM]	EC50 (5-HT1A) [nM]	EC50 (D3) [nM]
c1cc2c(c(N3CCNCC3)c1)OCCO2 [Eltoprazine]	148	–	–	–	–
O=c1[nH]c2cccc(N3CCN(Cc4cccc(-c5ccccc5)c4)CC3)c2o1 [Bifeprunox]	–	39.8	15.2	47.8	–
CN1CCN(c2cccc3[nH]c(=O)oc23)CC1 [Pardoprunox]	–	10	–	500	0.6
